Measurements from article PMC12128885, “Myricetin-bound crystal structure of the SARS-CoV-2 helicase NSP13 facilitates the discovery of novel natural inhibitors” (Acta Crystallographica Section D: Structural Biology, 2025).
Entries after “also recorded” stand apart in the source; their conditions may differ. Read-outs that look alike come from different tables or passages of the source.

How the values were obtained:
[1] = test system: Wuhan-like SARS-CoV-2 strain; test: microbe, parasite or virus in culture; format: cell-based
main protease (NSP5) = conditions: 2024, cited from earlier work
spike protein = conditions: read-out: Kd, spike protein; ref Su et al., 2021; Pan et al., 2023; Kuzikov et al., 2024; cited from earlier work
[2] = molecular target: RNA-dependent RNA polymerase (NSP12); parameters: method as in Su et al., 2021; Pan et al., 2023; Kuzikov et al., 2024; conditions: ref Su et al., 2021; Pan et al., 2023; Kuzikov et al., 2024; cited from earlier work

O=C(/C=C/c1ccc(O)c(O)c1)O[C@@H]1C[C@](O)(C(=O)O)C[C@@H](O)[C@H]1O [Chlorogenic acid, (1S,3R,4R,5R)-3-[(E)-3-(3,4-Dihydroxyphenyl)prop-2-enoyl]oxy-1,4,5-trihydroxycyclohexane-1-carboxylic acid]
IC50, infection assay (percentage of infected cells) ([1]; Vero E6 cells, MOI 0.3, 48 h, compound 1 h before infection): no significant effect; also recorded: no significant inhibition

O=c1nc(NO)ccn1[C@@H]1O[C@H](CO)[C@@H](O)[C@H]1O [NHC, β-D-N4-hydroxycytidine, reference compound]
IC50 ([1]; Vero E6 cells, MOI 0.3, 48 h, compound 1 h before infection, read-out: IC50, infection assay (percentage of infected cells)): 0.745 µM

O=C(/C=C/c1ccc(O)c(O)c1)O[C@H](Cc1ccc(O)c(O)c1)C(=O)O [Rosmarinic acid, (2R)-3-(3,4-Dihydroxyphenyl)-2-[(E)-3-(3,4-dihydroxyphenyl)prop-2-enoyl]oxypropanoic acid]
IC50 (main protease (NSP5); noncovalent binding to active site, ref Li et al., read-out: IC50, NSP5): 2180 nM
IC50 ([1]; Severe acute respiratory syndrome coronavirus 2, Vero C1008, read-out: IC50, infection assay (percentage of infected cells)): 59.3 µM

O=c1c(O)c(-c2cc(O)c(O)c(O)c2)oc2cc(O)cc(O)c12 [Myricetin, 3,5,7-Trihydroxy-2-(3,4,5-trihydroxyphenyl)chromen-4-one]
IC50 (main protease (NSP5); ref Su et al., 2021, Pan et al., 2023, Kuzikov et al., read-out: IC50, main protease (NSP5)): 630 nM
Kd (spike protein): 2670 nM
IC50 [2]: 860 nM
